Where two headings read alike, the source gives them in different places. Where only a bound is given, the exact number is not on record here.

Test [1] has as its target Beta Secretase enzyme (BACE) (Homo sapiens (Human), UniProt P56817). The test can be described thus: In vitro enzymatic BACE FRET assay. It counts as biochemical. Particulars: read-out: BACE 1 FRET assay IC50. The protocol:
In Vitro Enzymatic BACE FRET (Fluorescence Resonance Energy Transfer) Assay (Enzyme Assay Data in the Example Table I)
The assay buffer used in this screen is 0.05 M acetate, pH 4.2, 10% DMSO final, 100 uM genapol (which is a nonionic detergent, below its Critical Micelle Concentration). […] This assay is effectively started by the addition of FRET substrate (50 nM) and the combination is incubated for one hour. The FRET assay is terminated with by addition of Tris buffer, which raises the pH to neutrality, and the fluorescence is determined. The FRET substrate is a peptide with commercially available fluorophore and quencher, on opposite sides of the BACE cleavage site.

Test [2] has as its system Aβ40 in conditioned medium of cells stably expressing Amyloid Precursor Protein (APP). The test can be described thus: In vitro BACE cell-based assay (Aβ40 sandwich ELISA). Particulars: Homo sapiens. How it is done: In Vitro BACE Cell-Based Assay
The cell-based assay measures inhibition or reduction of Aβ40 in conditioned medium of test compound treated cells expressing amyloid precursor protein.
Cells stably expressing Amyloid Precursor Protein (APP) were plated at a density of 40K cells/well in 96 well plates (Costar). The cells were cultivated for 24 hours at 37° C. and 5% CO2 in DMEM supplemented with 10% FBS. The test compounds were then added to cells in 10-point dose response concentrations with the starting concentration being either 100 μM or 10 μM. The compounds were diluted from stock solutions in DMSO and the final DMSO concentration of the test compounds on cells was 0.1%. After 24 h of incubation with the test compounds the supernatant conditioned media was collected and the Aβ 40 levels were determined using a sandwich ELISA. The IC50 of the compound was calculated from the percent of control or percent inhibition of Aβ 40 as a function of the concentration of the test compound.
The sandwich ELISA to detect Aβ 40 was performed in 96 well microtiter plates, which were pre-treated with goat anti-rabbit IgG (Pierce). The capture and detecting antibody pair that were used to detect Aβ 40 from cell supernatants were affinity purified pAb40 (Biosource) and biotinylated 6E10 (Signet Labs Inc.), respectively. The optimal concentration for the pAb40 antibody was 3 μg/ml in Superblock/TBS (Pierce) that was supplemented with 0.05% Tween 20 (Sigma).
Cellular supernatants were incubated with the capture antibody for 3 h at 4° C., followed by 3 wash steps in TBS-tween (0.05%). The detecting antibody incubation was for 2 h at 4° C., again followed by the wash steps as described previously. The final readout of the ELISA is Time-Resolved Fluorescence (counts per minute) using Delfia reagents Streptavidin-Europium and Enhancement solutions (Perkin Elmer) and the Victor 2 multilabel counter (Perkin Elmer).

In the next test the target is Cathepsin D (Cat D) (Homo sapiens (Human), UniProt P07339). The experiment in a line: In vitro enzymatic Cathepsin D (Cat D) FRET assay. It is filed as biochemical. The conditions noted are these: read-out: CatD IC50. Put shortly: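 CHO-expressed recombinant Cat D cleaves a fluorophore/quencher FRET peptide (20 nM) in 0.05 M citrate pH 3.5, 5 mM CHAPS, 10% DMSO final, over 1 h. Tris addition neutralizes pH to stop the reaction; fluorescence read at excitation 500 nm, emission 580 nm.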

Where [3] appears, read: HEK293, average IC50, HEK cells, read-out: HEK cell assay IC50.
[4] abbreviates: HEK293, read-out: HEK cell assay IC50.
[5] abbreviates: average IC50, BACE enzyme assay.
The mark [6] stands for this setting: HEK293, average IC50, HEK cell assay, read-out: HEK cell assay IC50.
[7] abbreviates: average IC50, cathepsin D enzyme assay.

Chain of Beta Secretase enzyme (BACE) (P56817 46-501): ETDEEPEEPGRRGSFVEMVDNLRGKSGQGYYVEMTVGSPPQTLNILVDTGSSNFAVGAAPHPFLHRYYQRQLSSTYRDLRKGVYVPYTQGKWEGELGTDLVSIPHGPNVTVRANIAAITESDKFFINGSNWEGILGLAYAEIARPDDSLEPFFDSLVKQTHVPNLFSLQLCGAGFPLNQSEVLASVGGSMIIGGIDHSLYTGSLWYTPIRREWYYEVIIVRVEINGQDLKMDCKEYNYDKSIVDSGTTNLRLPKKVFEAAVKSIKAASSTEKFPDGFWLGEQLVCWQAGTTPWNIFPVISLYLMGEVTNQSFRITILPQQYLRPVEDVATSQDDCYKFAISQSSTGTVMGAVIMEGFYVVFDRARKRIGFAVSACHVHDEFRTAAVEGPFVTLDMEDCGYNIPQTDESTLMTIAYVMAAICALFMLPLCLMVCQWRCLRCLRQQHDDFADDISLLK
Chain of Cathepsin D (Cat D) (P07339 65-412, species assumed): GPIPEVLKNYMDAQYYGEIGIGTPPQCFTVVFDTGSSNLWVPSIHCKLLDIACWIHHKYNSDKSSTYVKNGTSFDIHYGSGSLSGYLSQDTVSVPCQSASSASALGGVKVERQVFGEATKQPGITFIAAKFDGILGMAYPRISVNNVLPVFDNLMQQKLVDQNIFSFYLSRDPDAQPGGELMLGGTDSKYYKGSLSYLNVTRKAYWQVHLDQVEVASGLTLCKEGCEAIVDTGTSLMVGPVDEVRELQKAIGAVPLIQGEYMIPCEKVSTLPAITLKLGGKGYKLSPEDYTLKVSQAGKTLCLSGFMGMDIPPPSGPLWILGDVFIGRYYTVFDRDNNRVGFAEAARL

Take `COc1cnc2c(Nc3ccc(F)c([C@]4(CF)C[C@@H](C(F)(F)F)OC(N)=N4)c3)nccc2n1` (racemic) [Example 9, (4S,6S)-4-(2-fluoro-5-((2-methoxypyrido[3,4-b]pyrazin-5-yl)amino)phenyl)-4-(fluoromethyl)-6-(trifluoromethyl)-5,6-dihydro-4H-1,3-oxazin-2-amine]: the IC50 – broadly, the point on the concentration scale where inhibition reaches its midpoint – was 0.05 µM in test [1] (average IC50), 0.372 µM in test [2] (setting [3]) and more than 400 µM at Cathepsin D (Cat D) (average IC50).

Regarding `Cc1cc(Cl)cnc1C(=O)Nc1ccc(F)c([C@]2(CF)C[C@@H](C(F)(F)F)OC(N)=N2)c1` [Example 4, N-(3-((4S,6S)-2-amino-4-(fluoromethyl)-6-(trifluoromethyl)-5,6-dihydro-4H-1,3-oxazin-4-yl)-4-fluorophenyl)-5-chloro-3-methylpicolinamide], the values for the IC50 (in test [1] (average IC50); in test [2] (setting [4]); on Cathepsin D (Cat D) (average IC50)) were 0.008 µM, 0.031 µM and more than 400 µM, respectively.

Consider `NC1=N[C@](CF)(c2cc(NC(=O)c3ccc(OCC(F)(F)F)cn3)ccc2F)C[C@@H](C(F)(F)F)O1` [Example 5, N-(3-((4S,6S)-2-amino-4-(fluoromethyl)-6-(trifluoromethyl)-5,6-dihydro-4H-1,3-oxazin-4-yl)-4-fluorophenyl)-5-(2,2,2-trifluoroethoxy)picolinamide], for which the values for the IC50 (in test [1] (average IC50); in test [2] (setting [3]); on Cathepsin D (Cat D) (average IC50)) were 0.043 µM, 0.263 µM and more than 400 µM, respectively.

Consider `Cc1c(C(=O)Nc2ccc(F)c([C@]3(CF)C[C@@H](C(F)(F)F)OC(N)=N3)c2)nc2ccc(Cl)cn12` [Example 6, N-(3-((4S,6S)-2-amino-4-(fluoromethyl)-6-(trifluoromethyl)-5,6-dihydro-4H-1,3-oxazin-4-yl)-4-fluorophenyl)-6-chloro-3-methylimidazo[1,2-a]pyridine-2-carboxamide], for which the half-inhibitory concentration (IC50) in test [1] (average IC50) was 0.036 µM; in test [2] (setting [3]) it was 0.0522 µM; at Cathepsin D (Cat D) (average IC50), more than 400 µM.

On to `Cc1c(C(=O)Nc2ccc(F)c([C@]3(CF)C[C@@H](C(F)(F)F)OC(N)=N3)c2)nc2ccccn12` [Example 7, N-(3-((4S,6S)-2-amino-4-(fluoromethyl)-6-(trifluoromethyl)-5,6-dihydro-4H-1,3-oxazin-4-yl)-4-fluorophenyl)-3-methylimidazo[1,2-a]pyridine-2-carboxamide], for which the 50% inhibitory concentration (IC50) in test [1] (average IC50) was 1.52 µM; in test [2] (setting [3]) it was 0.888 µM; on Cathepsin D (Cat D) (average IC50) it was more than 400 µM.

With `NC1=N[C@](CF)(c2cc(Nc3nccc4cc(Cl)cnc34)ccc2F)C[C@@H](C(F)(F)F)O1` [Example 8, (4S,6S)-4-(5-((3-chloro-1,7-naphthyridin-8-yl)amino)-2-fluorophenyl)-4-(fluoromethyl)-6-(trifluoromethyl)-5,6-dihydro-4H-1,3-oxazin-2-amine], the 50% inhibitory concentration (IC50) in test [1] (average IC50) is 0.018 µM; in test [2] (setting [3]), 0.203 µM; on Cathepsin D (Cat D) (average IC50), more than 400 µM.

As to `NC1=N[C@](CF)(c2cc(Nc3ncccc3F)ccc2F)C[C@@H](C(F)(F)F)O1` [Example 14, (4S,6S)-4-(2-fluoro-5-((3-fluoropyridin-2-yl)-amino)phenyl)-4-(fluoromethyl)-6-(trifluoromethyl)-5,6-dihydro-4H-1,3-oxazin-2-amine], the IC50 stood at 0.574 µM in test [1] (setting [5]), 0.758 µM in test [2] (setting [6]) and 879 µM at Cathepsin D (Cat D) (setting [7]).

As for `NC1=N[C@](CF)(c2cc(Nc3ccnc(Br)c3)ccc2F)C[C@@H](C(F)(F)F)O1` [Example 17, (4S,6S)-4-(5-((2-bromopyridin-4-yl)amino)-2-fluorophenyl)-4-(fluoromethyl)-6-(trifluoromethyl)-5,6-dihydro-4H-1,3-oxazin-2-amine], the IC50 in test [1] (setting [5]) was 6.49 µM; in test [2] (setting [6]), 4.34 µM; on Cathepsin D (Cat D) (setting [7]), 469 µM.

For the compound `NC1=N[C@](CF)(c2cc(Nc3nccc4nc(C(F)(F)F)cnc34)ccc2F)C[C@@H](C(F)(F)F)O1` [Example 18, (4S,6S)-4-(2-fluoro-5-((2-(trifluoromethyl)pyrido[3,4-b]pyrazin-5-yl)amino)phenyl)-4-(fluoromethyl)-6-(trifluoromethyl)-5,6-dihydro-4H-1,3-oxazin-2-amine], the results for the IC50 (in test [1] (setting [5]); in test [2] (setting [6]); at Cathepsin D (Cat D) (setting [7])) were 0.118 µM, 0.336 µM and more than 14.8 µM, respectively.

For `NC1=N[C@](CF)(c2cc(Nc3nccc4cn(C(F)F)nc34)ccc2F)C[C@@H](C(F)(F)F)O1` [Example 20, (4S,6S)-4-(5-((2-(difluoromethyl)-2H-pyrazolo[3,4-c]pyridin-7-yl)amino)-2-fluorophenyl)-4-(fluoromethyl)-6-(trifluoromethyl)-5,6-dihydro-4H-1,3-oxazin-2-amine 2,2,2-trifluoroacetate], the values for the IC50 (in test [1] (setting [5]); in test [2] (setting [4]); on Cathepsin D (Cat D) (setting [7])) were 33 µM, 10.6 µM and more than 400 µM, respectively.

With `N#Cc1cnc2c(Nc3ccc(F)c([C@]4(CF)C[C@@H](C(F)(F)F)OC(N)=N4)c3)nccc2c1` [Example 22, 8-((3-((4S,6S)-2-amino-4-(fluoromethyl)-6-(trifluoromethyl)-5,6-dihydro-4H-1,3-oxazin-4-yl)-4-fluorophenyl)amino)-1,7-naphthyridine-3-carbonitrile], the results for the IC50 (in test [1] (average IC50); in test [2] (setting [3]); on Cathepsin D (Cat D) (average IC50)) were 0.021 µM, 0.057 µM and more than 133 µM, respectively.

For `N#Cc1cc(Nc2ccc(F)c([C@]3(CF)C[C@@H](C(F)(F)F)OC(N)=N3)c2)ccn1` [Example 24, 4-((3-((4S,6S)-2-amino-4-(fluoromethyl)-6-(trifluoromethyl)-5,6-dihydro-4H-1,3-oxazin-4-yl)-4-fluorophenyl)amino)picolinonitrile], the half-inhibitory concentration (IC50) in test [1] (setting [5]) worked out at 19 µM; in test [2] (setting [6]), 7 µM; on Cathepsin D (Cat D) (setting [7]) it was 1760 µM.

`C[C@@]1(c2cc(NC(=O)c3ccc(Cl)cn3)ccc2F)C[C@@H](C(F)(F)F)OC(N)=N1` [Example 26, N-(3-((4S,6S)-2-amino-4-methyl-6-(trifluoromethyl)-5,6-dihydro-4H-1,3-oxazin-4-yl)-4-fluorophenyl)-5-chloropicolinamide]: the 50% inhibitory concentration (IC50) was 0.0123 µM in test [1] (average IC50), 0.0049 µM in test [2] (setting [3]) and more than 400 µM at Cathepsin D (Cat D) (average IC50).

In the case of `COc1cnc(C(=O)Nc2ccc(F)c([C@]3(C)C[C@@H](C(F)(F)F)OC(N)=N3)c2)cn1` [Example 27, N-(3-((4S,6S)-2-amino-4-methyl-6-(trifluoromethyl)-5,6-dihydro-4H-1,3-oxazin-4-yl)-4-fluorophenyl)-5-methoxypyrazine-2-carboxamide], the IC50 in test [1] (average IC50) was 0.03 µM; on Cathepsin D (Cat D) (average IC50), more than 400 µM.

In the case of `C#CCOc1ccc(C(=O)Nc2ccc(F)c([C@]3(C)C[C@@H](C(F)(F)F)OC(N)=N3)c2)nc1` [Example 28, N-(3-((4S,6S)-2-amino-4-methyl-6-(trifluoromethyl)-5,6-dihydro-4H-1,3-oxazin-4-yl)-4-fluorophenyl)-5-(prop-2-yn-1-yloxy)picolinamide], the half-maximal inhibitory concentration (IC50) in test [1] (setting [5]) is 0.0176 µM; in test [2] (setting [6]) it was 0.0093 µM; on Cathepsin D (Cat D) (setting [7]), 666 µM.

Regarding `C[C@@]1(c2cc(Nc3nc4ccc(Cl)cc4o3)ccc2F)C[C@@H](C(F)(F)F)OC(N)=N1` [Example 29, N-(3-((4S,6S)-2-amino-4-methyl-6-(trifluoromethyl)-5,6-dihydro-4H-1,3-oxazin-4-yl)-4-fluorophenyl)-6-chlorobenzo[d]oxazol-2-amine], the IC50 in test [1] (setting [5]) was more than 40 µM; in test [2] (setting [6]) it was 3.01 µM; at Cathepsin D (Cat D) (setting [7]), 210 µM.

The values are drawn from patent US9296734B2 (AMGEN INC., priority 2013, dated 2016).
